# Measurements reported in patent US20050004167A1, “Branched chain amino acid-dependent aminotransferase inhibitors and their use in the treatment of neurodegenerative diseases” (WARNER-LAMBERT COMPANY LLC, priority 2001, published 2005).
# Where “and” joins values, the source holds several entries; their conditions need not be identical. Identical values can stand only once.
# Test system: not given
# Experiment: not given
# Conditions: not given
row,melting point [°C],SMILES
1,251.6 to 252.7,CN(C)c1ccc2[nH]c(C(=O)NNS(=O)(=O)c3ccccc3)cc2c1.Cl
2,103.2 to 103.9,CN(C)c1ccccc1S(=O)(=O)NNC(=O)c1ccc2oc3ccccc3c2c1.Cl
3,218.3 to 218.9,CN(C)c1ccc2oc(C(=O)NNS(=O)(=O)c3ccccc3)cc2c1.Cl
4,187.6 to 188.8,CN(C)c1ccc(S(=O)(=O)NNC(=O)c2ccc3oc4ccccc4c3c2)cc1.Cl
5,156 to 158,"O=C(NNS(=O)(=O)c1ccccc1)c1ccc2c(c1)OCO2 (hydrate or solvate) [Example 10, Benzo[1,3]dioxole-5-carboxylic acid 2-(phenylsulfonyl)hydrazide]"

# Molecular target: T1, human Branched Chain Amino Acid Aminotransferase cytosolic form (hBCATc) (Homo sapiens, UniProt P54687)
# T1 construct: made in house; host or cells: E. coli BL21(DE3)
# T1 sequence (P54687 1-386): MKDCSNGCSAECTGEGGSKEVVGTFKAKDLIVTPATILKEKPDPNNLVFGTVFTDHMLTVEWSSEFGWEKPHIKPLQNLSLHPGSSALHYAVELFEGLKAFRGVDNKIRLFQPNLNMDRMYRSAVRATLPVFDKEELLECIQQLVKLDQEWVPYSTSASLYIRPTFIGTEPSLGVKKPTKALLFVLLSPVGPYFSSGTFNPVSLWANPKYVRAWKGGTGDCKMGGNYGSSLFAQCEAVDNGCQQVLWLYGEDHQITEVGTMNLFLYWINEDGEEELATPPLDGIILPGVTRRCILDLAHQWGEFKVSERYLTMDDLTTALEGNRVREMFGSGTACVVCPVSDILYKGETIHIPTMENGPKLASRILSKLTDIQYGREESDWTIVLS
# Experiment: In vitro coupled enzyme assay (glutamate dehydrogenase, NADH formation), human BCATc
# Type: biochemical
# Conditions: recombinant human BCATc, 37° C., 25 mM phosphate buffer pH 7.8; several values in a cell = repeat determinations; read-out: RhBCATc
# Description: In vitro enzyme assay—human Branched Chain Amino Acid Aminotransferase cytosolic form (hBCATc) and mitochondrial form (hBCATm) as well as rat BCAT cytosolic form were assayed at 37° C. in 25 mM phosphate buffer pH 7.8. In addition, 2 mM DTT and 12.5 mM […] were added to the assay mixture. A coupling enzyme assay was used to monitor the production of glutamate. The formation of NADH from NAD+ at […] was followed on a 96-well plate Molecular Devices plate reader.
# The following components were used in this coupled assay: 4 mM ADP, 1 mM NAD+, 750 μM L-Leucine, 500 μM α-ketoglutarate, 10 μM pyridoxal phosphate, 1 unit glutamate dehydrogenase, and 1.25 μg of the appropriate BCAT enzyme. Inhibitions by compounds were assayed by adding various concentrations to this coupled assay procedure as a DMSO stock up to a 5% v/v DMSO/buffer ratio.
# Enzyme Preparation—humanBCATc and ratBCATc were expressed in BL21(DE3) cells. A growing culture of cells was induced with 1 mM IPTG at room temperature overnight. These cells were harvested by centrifugation at 10,000 g for 20 minutes. The supernatant was discarded, and the cells were stored at −80° C. until needed. The protein was purified by the following method. The cell paste was resuspended in extraction buffer (0.1 M phosphate, pH 8.0, with 0.01 M Tris-HCL and 5 mM TCEP and then lysed on a French Press at 1000 psi. The lysate was centrifuged at 10,000 g for 15 minutes, and the pellet was discarded. The supernatant was loaded onto a Hitrap Chelating column previously charged with 0.1 M NiSO4 and washed with 3 to 4 column volumes of extraction buffer. The column was then washed with 0.01 Tris, pH 7.5, 10% glycerol, 150 mM NaCl, 5 mM TCEP for two column volumes. The column was then further washed with two column volumes of 0.1 M phosphate, pH 6.0, 0.01 M Tris, 10% glycerol and 750 mM NaCl. Finally, the column was washed with two column volumes of the same buffer plus 50 mM imidazole. The BCAT enzyme was then eluted with the same buffer but with 350 mM imidazole. The eluant was then dialyzed overnight against 10 mM phosphate buffer pH 8.0, 10% glycerol, and 5 mM TCEP. The dialyzed protein was then loaded onto a Q-sepharose column and eluted using a salt gradient. Active fractions were collected and further purified on a Superose-12 column to yield pure BCAT protein.
row,IC50,SMILES
1,90.5 µM,"O=C(NNS(=O)(=O)c1ccccc1)c1cccc2oc3ccccc3c12 [Example 12, 1-Dibenzofurancarboxylic acid 2-(phenylsulfonyl)hydrazide]"
2,> 100 µM,"O=C(NNS(=O)(=O)c1ccccc1)c1cccc2cccnc12 [Example 21, Quinoline-8-carboxylic acid 2-(phenylsulfonyl)hydrazide]"
3,3.76 µM,"COc1cccc2cc(C(=O)NNS(=O)(=O)c3ccccc3C(F)(F)F)oc12 [Example 54, 2-Benzofurancarboxylic acid, 7-methoxy-, 2-[[2-(trifluoromethyl)phenyl]-sulfonyl]hydrazide]"
4,3.53 µM and 3.3 µM,"COc1cccc2cc(C(=O)NNS(=O)(=O)c3cccc(C)c3)oc12 [Example 55, 2-Benzofurancarboxylic acid, 7-methoxy-, 2-[(3-methylphenyl)sulfonyl]hydrazide]"
5,3.7 µM,"COc1c(C(=O)NNS(=O)(=O)c2ccccc2)oc2ccc(Cl)cc12 [Example 78, 2-Benzofurancarboxylic acid, 5-chloro-3-methoxy, 2-(phenylsulfonyl)hydrazide]"
6,16.8 µM,"Cc1ccc(S(=O)(=O)NNC(=O)c2cnc3ccccc3c2)cc1 [Example 127, 3-Quinolinecarboxylic acid, 2-[(4-methylphenyl)sulfonyl]hydrazide]"
7,12 µM,"Cc1cccc(S(=O)(=O)NNC(=O)c2ccc3ncccc3c2)c1 [Example 128, 6-Quinolinecarboxylic acid, 2-[(3-methylphenyl)sulfonyl]hydrazide]"
8,13 µM,"Cc1cccc(S(=O)(=O)NNC(=O)c2cnc3ccccc3c2)c1 [Example 129, 3-Quinolinecarboxylic acid, 2-[(3-methylphenyl)sulfonyl]hydrazide]"
9,22 µM,"O=C(NNS(=O)(=O)c1cccc(Cl)c1)c1ccc2ncccc2c1 [Example 130, 6-Quinolinecarboxylic acid, 2-[(3-chlorophenyl)sulfonyl]hydrazide]"
10,61 µM,"O=C(NNS(=O)(=O)c1cccc(Cl)c1)c1cnc2ccccc2c1 [Example 131, 3-Quinolinecarboxylic acid, 2-[(3-chlorophenyl)sulfonyl]hydrazide]"
11,40 µM,"O=C(NNS(=O)(=O)c1cccc(F)c1)c1ccc2ncccc2c1 [Example 132, 6-Quinolinecarboxylic acid, 2-[(3-fluorophenyl)sulfonyl]hydrazide]"
12,> 100 µM,"O=C(NNS(=O)(=O)c1cccc(F)c1)c1cnc2ccccc2c1 [Example 133, 3-Quinolinecarboxylic acid, 2-[(3-fluorophenyl)sulfonyl]hydrazide]"
13,> 100 µM,"O=C(NNS(=O)(=O)c1cc(Cl)cc(Cl)c1)c1ccc2ncccc2c1 [Example 138, 6-Quinolinecarboxylic acid, 2-[(3,5-dichlorophenyl)sulfonyl]hydrazide]"
14,41 µM,"O=C(NNS(=O)(=O)c1cc(Cl)cc(Cl)c1)c1cnc2ccccc2c1 [Example 139, 3-Quinolinecarboxylic acid, 2-[(3,5-dichlorophenyl)sulfonyl]hydrazide]"
15,> 100 µM,"O=C(NNS(=O)(=O)c1ccccc1)c1nccc2ccccc12 [Example 152, Isoquinoline-1-carboxylic acid 2-(phenylsulfonyl)hydrazide]"
